Tested on: rat tracheal rings
Assay: Tracheal relaxation assay, carbachol precontracted rings
Conditions: 10 μM compound, 1 μM carbachol precontracted rat trachea rings
Procedure: Trachea were excised, cleaned of connective tissue and cut into cylindrical segments of 2-3 mm length. Two stainless steel wires were guided through the lumen of the tracheal ring. One wire was fixed in the tissue bath and the other was connected to a force transducer via surgical silk. […] Indomethacin (1 μM), a cyclooxygenase inhibitor, was added to the Krebs buffer and was present throughout the experiments. Contractile tensions were measured using an isometric force transducer (Grass Instruments) and signals were analyzed using specialized software (Chart v5.5, ADInstruments). The preparations were allowed to equilibrate at a resting tension of 0.3 to 0.5 gm prior to two challenges with 60 mM KCl to assess tissue viability. After washing, tissues were treated with 1 μM carbachol for 10 to 15 minutes to induce a contractile response. Test Compounds were added cumulatively to the bath every 30 minutes and reductions in tension were recorded. Basal tension was subtracted from all values and data were reported as a percentage of the maximal carbachol-induced contraction. Data were fit to the Hill equation using GraphPad Prism v5 software.

Structure (SMILES)	Percentage of carbachol-induced contraction at 10 μM compound, Avg %
O=S(=O)(c1cccc2cnccc12)N1CCCNCC1 [fasudil]	least efficacious

Same assay, conditions: carbachol precontracted tissue

IC50, tracheal ring relaxation	Structure (SMILES)
could not be obtained	O=S(=O)(c1cccc2cnccc12)N1CCCNCC1 [fasudil]

Tested on: ovalbumin-sensitized mice
Assay: Bronchodilator assay in ovalbumin-sensitized mouse model of asthma (Penh)
Format: in vivo
Conditions: oral doses
Procedure: Male BALB/c mice were ordered from Charles River Laboratories (Raleigh, N.C.). The animals were approximately 19 to 21 grams at time of receipt. Upon arrival, the animals were randomized into groups of five males per cage and assigned to a dosing group. Animals were quarantined for 7 days under test conditions. They were observed daily for general health status and ability to adapt to the water bottles.
Animals were sensitized on day 0 and 14 of study by an intraperitoneal injection with 20 μg of ovalbumin (ova) and 2.0 mg aluminum hydroxide (alum) which initiates the development of a specific T-helper (Th) cells type 2 resulting in asthmatic animals. One group of animals received an injection of saline to use as non-asthmatic control animals. All animals were challenged with aerosolized 1% ova once daily for 25 minutes on days 28, 29, and 30 (Zosky, et al. Respiratory Research, 2004; 5:15). Aerosol challenge consists of using an Aerogen Aeroneb nebulizer and controller with a particle size of 4-6 μm mass median aerodynamic diameter (MMAD) with a distribution of 400 μl per minute. This aerosol challenge is necessary to target the Th2-driven allergic inflammation in the lower airways.
The test compounds and the control vehicle were administered to animals on the day of airway hyperreactivity evaluation 30 minutes to 1 hour before the evaluation to determine the bronchodilator effects of the compounds according to the bronchodilator dosing paradigm (FIG. 3A). Compounds were administered p.o. (orally), i.p. (intraperitoneally) at 15 μMol/kg unless otherwise noted (Table 4). Alternatively, compounds were administered i.t. (intratracheally) at varying doses as shown (FIG. 3B). On day 32 of the experiment, airway hyperreactivity was evaluated by placing conscious, unrestrained animals in a whole body plethysmometer (Buxco Wilmington, N.C.) and exposing them to escalating doses of nebulized methacholine, a known bronchial constrictor which acts through the muscarinic receptors of the lungs, (doses: […]-50 mg/ml). Exposure to the methacholine doses consisted of a 3 minute period during which a nebulizer was aerosolizing the methacholine and an additional 3 minute period following the cessation of nebulization. Over this 6 minute period, the plethysmometer monitors and generates numerical values for all parameters of the breath pattern. Enhanced pause (Penh), a unitless index of airway hyperreactivity, is derived from the expiratory side of the respiratory waveform measured via the plethysmograph and is used as an indirect measure of airway resistance and hyperreactivity. […] Following the methacholine dose response, all animals were anesthetized, bled and euthanized.
Within each experiment, a mouse was given a single compound and exposed to increasing doses of methacholine [0 (baseline), 0.375, 0.75, 1.5, 3, 6, 12, 25, 50 mg/ml]. The Penh value at each of the dose levels of methacholine represents the 6-minute average response. Change from baseline (CFB) in Penh was calculated at each methacholine dose and the area under the curve (AUC) for these CFB values was calculated using the trapezoidal rule. This same approach was applied for each mouse across multiple experiments.
For statistical analyses, a linear mixed-effects model where the response was the log 10 transformed value of AUC described above was used. Data from equal experimental conditions across experiments performed on different days were pooled for statistical analysis and data reporting. The various compounds were compared adjusting for the log 10-transformed baseline value of Penh and the chamber (1 of 10) of the plethysmometer each mouse was contained in during an experiment. A random intercept for each experiment was assumed to account for possible similarities of the results obtained from a given experiment (i.e., as a “blocking effect”).
For Table 4 and Table 5, Penh values are reported as log 10 transformed AUC values. […]

Structure (SMILES)	Reduction in airway hyperresponsivness
c1cc2cc(CN3CCC[C@@H](Nc4ccc5[nH]ncc5c4)C3)ccc2o1 [Compound 1.131]	statistically significant reduction

Tested on: ovalbumin-sensitized mice
Assay: Anti-inflammatory assay in ovalbumin-sensitized mouse model of asthma (BALF cells and cytokines)
Format: in vivo
Conditions: dosed orally to day 31, anti-inflammatory dosing paradigm
Source text: Mouse model of asthma via ovalbumin sensitization was created as described in Example 5. The anti-inflammatory dosing paradigm (FIG. 4) was utilized to evaluate the anti-inflammatory effects of experimental compounds. The anti-inflammatory dosing paradigm consists of dosing the animals once a day starting on day 27 and finishing on either day 30 or 31 (1 hr prior to the aerosolized ovalbumin challenges on days 28 to 30) but not on day 32 when hyper-reactivity evaluation occurs.
Bronchoalveolar lavage fluid (BALF) was collected by infusing 3.0 ml of saline with 10% fetal calf serum into the lungs via the trachea and then withdrawing the fluid. The total amount of cells/ml of BALF fluid was determined via manual cell count on hemocytometer. The BALF was centrifuged, supernatant removed and analyzed for cytokine concentrations as described below, and cell pellet reconstituted in 500 μL of fluid. Cytospin slides were prepared from the cell pellet using 100 μL of fluid and spinning samples for 5 minutes at 5000 rpms in a cytospin centrifuge. Following Hema3 stain, relative percentages of individual leukocytes were determined on a 200 cell count for each sample. The final concentration of individual leukocyte cell types per ml of BALF was determined by multiplication of the relative percentage of individual leukocytes with the total amount of cells/ml of BALF fluid.
The concentrations of cytokines in the BALF samples were determined using commercially available Bio-plex kits (Bio-Rad) for the detection of mouse IL-5, IL-13, and Eotaxin. The analysis of cytokine levels was measured using the Bio-Plex 200 (Bio-Rad) system according to the manufacturer's instructions.

Structure (SMILES)	Airway eosinophil infiltration (eosinophils per ml of BALF)
c1cc2cc(CN3CCC[C@@H](Nc4ccc5[nH]ncc5c4)C3)ccc2o1 [Compound 1.131]	reduced

Tested on: ovalbumin-sensitized mice
Assay: Prevention of airway hyperreactivity development, anti-inflammatory dosing paradigm (Penh)
Format: in vivo, mouse
Conditions: anti-inflammatory dosing paradigm

Structure (SMILES)	Efficacy using the anti-inflammatory dosing paradigm
CC(C)(C)NCC(O)c1ccc(O)c(CO)c1 (stereo not shown) [Salbutamol, reference compound]	ineffective

Same assay, conditions: oral, 15 μMol/kg once a day during days 27 to 31

Structure (SMILES)	Prevention of airway hyperreactivity to metacholine on Day 32
c1cc2cc(CN3CCC[C@@H](Nc4ccc5[nH]ncc5c4)C3)ccc2o1 [Compound 1.131]	prevention of airway hyperreactivity

Tested on: not listed separately
Assay: Compound plasma concentrations in mice at 15 min post administration
Format: in vivo, mouse
Conditions: mouse plasma, 15 minutes, oral
Procedure: Additionally, compound concentrations were determined in the plasma and lungs of male, ovalbumin-sensitized, Balb/c mice from a murine model of asthma. Test compounds were formulated in water or 1% polysorbate 80 and dosed at 15 μmol/kg for intraperitoneal (IP) or oral (PO) administration or formulated for intratracheal (IT) administration and dosed at 5 μmol/kg, which directly targets the lungs. Following completion of the in vivo study, mice were euthanized and blood and plasma collected approximately 2.5-3 hours post administration of test compound for bronchodialator (BD) studies and 24 hours post administration for anti-inflamatory (AI) studies. Lungs were homogenized in Matrix A lysing tubes using a FastPrep 24 tissue and cell homogenizer (MP Biomedicals, Solon, Ohio). Both plasma samples and lung extracts were assayed for compound concentrations using an on-line, solid phase extraction LC/MS/MS system.

Structure (SMILES)	Detection in mouse plasma 15 minutes after oral dosing
c1cc2cc(CN3CCC[C@@H](Nc4ccc5[nH]ncc5c4)C3)ccc2o1 [Compound 1.131]	readily detectable

Same assay, conditions: mouse; mice, plasma, 15 min post administration (oral dosing), mean of n = 3 mice; read-out: Plasma Mean Concentration

Structure (SMILES)	concentration at 15 min
Brc1ccc(CN2CCC[C@H](Nc3ccc4[nH]ncc4c3)C2)cc1 [Compound 1.142]	330 nM
COc1ccc(CN2CCC[C@H](Nc3ccc4[nH]ncc4c3)C2)cc1NS(C)(=O)=O [Compound 1.234]	240 nM
NC(=O)Cn1ccc2ccc(CN3CCC[C@@H](Nc4ccc5[nH]ncc5c4)C3)cc21 [Compound 1.106]	441 nM
Cc1cccc(CN2CCC[C@@H](Nc3ccc4[nH]ncc4c3)C2)c1C [Compound 1.172]	111 nM
Cc1ccc(CN2CC[C@@H](Nc3ccc4[nH]ncc4c3)C2)cc1 [Compound 1.242]	580 nM
c1ccc(CN2CCC[C@H](Nc3ccc4[nH]ncc4c3)C2)cc1 [Compound 1.227]	1860 nM
NC(=O)Cn1ccc2ccc(CN3CCC[C@H](Nc4ccc5[nH]ncc5c4)C3)cc21 [Compound 1.107]	211 nM
Clc1cccc(CN2CCC[C@@H](Nc3ccc4[nH]ncc4c3)C2)c1 [Compound 1.191]	260 nM
c1cc(N[C@@H]2CCN(Cc3ccc4c(c3)OCCO4)C2)c2ccncc2c1 [Compound 2.056]	1260 nM
Cc1ccc(CN2CCC[C@H](Nc3ccc4[nH]ncc4c3)C2)cc1O [Compound 1.151]	479 nM
CSc1cccc(CN2CCC[C@@H](Nc3ccc4[nH]ncc4c3)C2)c1 [Compound 1.159]	250 nM
Fc1ccc(CN2CCC[C@@H](Nc3ccc4[nH]ncc4c3)C2)cc1 [Compound 1.146]	1260 nM
COc1ccc(CN2CC[C@@H](Nc3ccc4[nH]ncc4c3)C2)cc1 [Compound 1.245]	1520 nM
CN(c1cccc(CN2CCC[C@H](Nc3ccc4[nH]ncc4c3)C2)c1)S(C)(=O)=O [Compound 1.198]	643 nM
C=Cc1ccc(CN2CCC[C@H](Nc3ccc4[nH]ncc4c3)C2)cc1 [Compound 1.229]	1450 nM
Brc1cccc(CN2CCC[C@@H](Nc3ccc4[nH]ncc4c3)C2)c1 [Compound 1.210]	286 nM
Fc1ccc(CN2CCC[C@H](Nc3ccc4[nH]ncc4c3)C2)cc1F [Compound 1.072]	1770 nM
CCOc1cccc(CN2CCC[C@@H](Nc3ccc4[nH]ncc4c3)C2)c1 [Compound 1.203]	1130 nM
c1cc(C2CC2)ccc1CN1CCC[C@H](Nc2ccc3[nH]ncc3c2)C1 [Compound 1.185]	1020 nM
c1cc(CN2CCC[C@@H](Nc3ccc4[nH]ncc4c3)C2)cc(C2CC2)c1 [Compound 1.202]	130 nM
CC(C)c1ccc(CN2CCC[C@@H](Nc3ccc4[nH]ncc4c3)C2)cc1 [Compound 1.204]	549 nM
Cc1ccc(CN2CCC[C@H](Nc3ccc4[nH]ncc4c3)C2)c(C)c1 [Compound 1.155]	32.4 nM
CCSc1ccc(CN2CCC[C@H](Nc3ccc4[nH]ncc4c3)C2)cc1 [Compound 1.168]	588 nM
CS(=O)(=O)c1cccc(CN2CCC[C@H](Nc3ccc4[nH]ncc4c3)C2)c1 [Compound 1.182]	452 nM

Continued, values first:

concentration at 15 min	Structure (SMILES)
503 nM	Clc1ccc(CN2CC[C@@H](Nc3cccc4cnccc34)C2)cc1 [Compound 2.027]
283 nM	c1cc2c(cc1CN1CCC[C@@H](Nc3ccc4[nH]ncc4c3)C1)OCCO2 [Compound 1.177]
665 nM	OCCOc1cccc(CN2CCC[C@@H](Nc3cccc4cnccc34)C2)c1 [Compound 2.034]
980 nM	O=C(COc1cccc(CN2CCC[C@@H](Nc3ccc4[nH]ncc4c3)C2)c1)N1CCOCC1 [Compound 1.127]
660 nM	Fc1ccc(CN2CC[C@@H](Nc3cccc4cnccc34)C2)cc1F [Compound 2.062]
348 nM	CC(=O)NCc1cccc(CN2CC[C@@H](Nc3cccc4cnccc34)C2)c1 [Compound 2.063]
708 nM	Brc1cccc(CN2CCC[C@H](Nc3ccc4[nH]ncc4c3)C2)c1 [Compound 1.183]
587 nM	c1cc2c(cc1CN1CCC[C@@H](Nc3ccc4[nH]ncc4c3)C1)CCO2 [Compound 1.246]
639 nM	Clc1cccc(CN2CCC[C@H](Nc3ccc4[nH]ncc4c3)C2)c1 [Compound 1.170]
792 nM	c1ccc(CN2CCC[C@@H](Nc3ccc4[nH]ncc4c3)C2)cc1 [Compound 1.110]
355 nM	CC(=O)NCc1cccc(CN2CCC[C@@H](Nc3ccc4[nH]ncc4c3)C2)c1 [Compound 1.194]
109 nM	Oc1cccc(CN2CCC[C@@H](Nc3ccc4[nH]ncc4c3)C2)c1 [Compound 1.145]
281 nM	C=Cc1ccc(CN2CCC[C@@H](Nc3ccc4[nH]ncc4c3)C2)cc1 [Compound 1.208]
5.9 nM	OCCOc1cccc(CN2CCC[C@H](Nc3ccc4[nH]ncc4c3)C2)c1 [Compound 1.090]
1340 nM	OCCOc1cccc(CN2CCC[C@H](Nc3cccc4cnccc34)C2)c1 [Compound 2.036]
12.8 nM	OCc1ccc(CN2CCC[C@H](Nc3ccc4[nH]ncc4c3)C2)cc1 [Compound 1.223]
60.8 nM	O=C(COc1cccc(CN2CC[C@@H](Nc3cccc4cnccc34)C2)c1)N1CCOCC1 [Compound 2.043]
1020 nM	Cc1ccc(CN2CCC[C@H](Nc3ccc4[nH]ncc4c3)C2)cc1 [Compound 1.078]
526 nM	COc1ccc(CN2CCC[C@@H](Nc3ccc4[nH]ncc4c3)C2)cc1 [Compound 1.226]
274 nM	c1cc2cc(CN3CCC[C@@H](Nc4ccc5[nH]ncc5c4)C3)ccc2[nH]1 [Compound 1.143]
314 nM	OCCOc1cccc(CN2CCC[C@@H](Nc3ccc4[nH]ncc4c3)C2)c1 [Compound 1.092]

Source: US8299096B2, “Method for treating pulmonary diseases using rho kinase inhibitor compounds” (priority 2008, dated 2012)
